The text below walks through data of patent US8178677B2, “Hydroxyalkyl substituted imidazoquinolines” (3M Innovative Properties Company, priority 2005, dated 2012).

Counter-ions that a name gives are not always drawn. Like-named read-outs stand apart in the source and are kept apart here. Some results are limits rather than exact numbers.

In data set [1] the test system is tumor necrosis factor (α) (TNF-α) induction in human peripheral blood mononuclear cells (PBMC). The data set can be described thus: Cytokine induction in human cells (PBMC): TNF-α secreted into culture media, ORIGEN M-Series immunoassay. Format: cell-based. The conditions noted are these: for minimal effective concentration: Homo sapiens, PBMC, read-out: Minimum Effective Concentration (μM) TNF. An excerpt: (§1) Cytokine Induction in Human Cells
(§2) An in vitro human blood cell system is used to assess cytokine induction. Activity is based on the measurement of interferon (α) and tumor necrosis factor (α) (IFN-α and TNF-α, respectively) secreted into culture media as described by Testerman et. al. in “Cytokine Induction by the Immunomodulators Imiquimod and S-27609”, Journal of Leukocyte Biology, 58, 365-372 (September, 1995).
(§3) Blood Cell Preparation for Culture
(§4) Whole blood from healthy human donors is collected by venipuncture into vacutainer tubes or syringes containing EDTA. Peripheral blood mononuclear cells (PBMC) are separated from whole blood by density gradient centrifugation using HISTOPAQUE-1077 (Sigma, St. Louis, Mo.) or Ficoll-Paque Plus (Amersham Biosciences Piscataway, N.J.). Blood is diluted 1:1 with Dulbecco's Phosphate Buffered Saline (DPBS) or Hank's Balanced Salts Solution (HBSS). Alternately, whole blood is placed in Accuspin (Sigma) or LeucoSep (Greiner Bio-One, Inc., Longwood, Fla.) centrifuge frit tubes containing density gradient medium. The PBMC layer is collected and washed twice with DPBS or HBSS and re-suspended at 4×10^6 cells/mL in RPMI complete. The PBMC suspension is added to 96 well flat bottom sterile tissue culture plates containing an equal volume of RPMI complete media containing test compound.
(§5) The compounds are solubilized in dimethyl sulfoxide (DMSO). The DMSO concentration should not exceed a final concentration of 1% for addition to the culture wells. The compounds are generally tested at concentrations ranging from 30-0.014 μM. Controls include cell samples with media only, cell samples with DMSO only (no compound), and cell samples with reference compound.
(§6) The solution of test compound is added at 60 μM to the first well containing RPMI complete and serial 3 fold dilutions are made in the wells. The PBMC suspension is then added to the wells in an equal volume, bringing the test compound concentrations to the desired range (usually 30-0.014 μM). The final concentration of PBMC suspension is 2×10^6 cells/mL. The plates are covered with sterile plastic lids, mixed gently and then incubated for 18 to 24 hours at 37° C. in a 5% carbon dioxide atmosphere.
(§7) Following incubation the plates are centrifuged for 10 minutes at 1000 rpm (approximately 200×g) at 4° C. The cell-free culture supernatant is removed and transferred to sterile polypropylene tubes. Samples are maintained at −30 to −70° C. until analysis. The samples are analyzed for IFN-α by ELISA and for TNF-α by IGEN/BioVeris Assay.
(§8) Interferon (α) and Tumor Necrosis Factor (α) Analysis
The TNF-α concentration is determined by ORIGEN M-Series Immunoassay and read on an IGEN M-8 analyzer from BioVeris Corporation, formerly known as IGEN International, Gaithersburg, Md. The immunoassay uses a human TNF-α capture and detection antibody pair (Catalog Numbers AHC3419 and AHC3712) from Biosource International, Camarillo, Calif. Results are expressed in pg/mL.
(§9) In total, the data output of the assay consists of concentration values of TNF-α and IFN-α (y-axis) as a function of compound concentration (x-axis).
Analysis of the data has two steps. First, the greater of the mean DMSO (DMSO control wells) or the experimental background (usually 20 pg/mL for IFN-α and 40 pg/mL for TNF-α) is subtracted from each reading. If any negative values result from background subtraction, the reading is reported as “*”, and is noted as not reliably detectable. In subsequent calculations and statistics, “*”, is treated as a zero. Second, all background subtracted values are multiplied by a single adjustment ratio to decrease experiment to experiment variability. The adjustment ratio is the area of the reference compound in the new experiment divided by the expected area of the reference compound based on the past 61 experiments (unadjusted readings). […]

Data set [2] deals with interferon (α) (IFN-α) induction in human peripheral blood mononuclear cells (PBMC). The data set can be described thus: Cytokine induction in human cells (PBMC): IFN-α secreted into culture media, ELISA. The settings on record: read-out: Minimum Effective Concentration (μM) IFN. It counts as cell-based.
From the text: as §1, §2, §3, §4, §5, §6, §7, §8
IFN-α concentration is determined with a human multi-subtype calorimetric sandwich ELISA (Catalog Number 41105) from PBL Biomedical Laboratories, Piscataway, N.J. Results are expressed in pg/mL.
as §9
Analysis of the data has two steps. First, the greater of the mean DMSO (DMSO control wells) or the experimental background (usually 20 pg/mL for IFN-α and 40 pg/mL for TNF-α) is subtracted from each reading. If any negative values result from background subtraction, the reading is reported as “*”, and is noted as not reliably detectable. In subsequent calculations and statistics, “*”, is treated as a zero. Second, all background subtracted values are multiplied by a single adjustment ratio to decrease experiment to experiment variability. The adjustment ratio is the area of the reference compound in the new experiment divided by the expected area of the reference compound based on the past 61 experiments (unadjusted readings). […] The reference compound used is 2-[4-amino-2-ethoxymethyl-6,7,8,9-tetrahydro-α,α-dimethyl-1H-imidazo[4,5-c]quinolin-1-yl]ethanol hydrate (U.S. Pat. No. 5,352,784; Example 91) and the expected area is the sum of the median dose values from the past 61 experiments. […]

The mark [3] stands for this setting: 18 to 24 hours incubation, tested 30-0.014 μM, lowest concentration inducing response over 40 pg/mL TNF-α, median of # experiments.
[4] abbreviates: lowest tested concentration inducing TNF-α over 40 pg/mL, median where more than one experiment.
Where [5] appears, read: 18 to 24 hours incubation, tested 30-0.014 μM, lowest concentration inducing response over 20 pg/mL IFN-α, median of # experiments.
The mark [6] stands for this setting: lowest tested concentration inducing IFN-α over 20 pg/mL, median where more than one experiment.

As to `CC(C)C(=O)NCCCCn1c(CO)nc2c(N)nc3ccccc3c21` (as salt: salt) [Example 146, N-[4-(4-amino-2-hydroxymethyl-1H-imidazo[4,5-c]quinolin-1-yl)butyl]isobutyramide], the melting point lay in the range of 222 to 224 °C.
On to `Cc1nc2c(N)nc3ccccc3c2n1CC(C)(C)NS(C)(=O)=O` [Analog 1, N-[2-(4-Amino-2-methyl-1H-imidazo[4,5-c]quinolin-1-yl)-1,1-dimethylethyl]methanesulfonamide, reference compound], for which the minimal effective concentration in data set [1] (setting [3]) was determined as 3.33 µM; in data set [1] (setting [4]) it was 3.33 µM; in data set [2] (setting [5]) it was 0.37 µM; in data set [2] (setting [6]), 0.37 µM.
`CCc1nc2c(N)nc3ccccc3c2n1CC(C)(C)NS(C)(=O)=O` [Analog 2, N-[2-(4-Amino-2-ethyl-1H-imidazo[4,5-c]quinolin-1-yl)-1,1-dimethylethyl]methanesulfonamide, reference compound]: the minimal effective concentration in data set [1] (setting [3]) was found to be 1.11 µM; in data set [1] (setting [4]) it was 1.11 µM; in data set [2] (setting [5]) it was 0.12 µM; in data set [2] (setting [6]), 0.12 µM.
On to `CCCc1nc2c(N)nc3ccccc3c2n1CC(C)(C)NS(C)(=O)=O` [Analog 3, N-[2-(4-Amino-2-propyl-1H-imidazo[4,5-c]quinolin-1-yl)-1,1-dimethylethyl]methanesulfonamide, reference compound], for which the minimal effective concentration in data set [1] (setting [3]) worked out at 0.37 µM; in data set [1] (setting [4]) it was 0.37 µM; in data set [2] (setting [5]) it was 0.12 µM; in data set [2] (setting [6]), 0.12 µM.
Consider `CCOCc1nc2c(N)nc3ccccc3c2n1CC(C)(C)NS(C)(=O)=O` [Analog 4, N-[2-(4-Amino-2-ethoxymethyl-1H-imidazo[4,5-c]quinolin-1-yl)-1,1-dimethylethyl]methanesulfonamide, reference compound], for which the minimal effective concentration in data set [1] (setting [3]) came out at 0.37 µM; in data set [1] (setting [4]), 0.37 µM; in data set [2] (setting [5]), 0.04 µM; in data set [2] (setting [6]) it was 0.04 µM.
Regarding `COCCc1nc2c(N)nc3ccccc3c2n1CC(C)(C)NS(C)(=O)=O` [Analog 5, N-{2-[4-Amino-2-(2-methoxyethyl)-1H-imidazo[4,5-c]quinolin-1-yl]-1,1-dimethylethyl}methanesulfonamide, reference compound], the minimal effective concentration was determined as 0.12 µM in data set [1] (setting [3]), 0.12 µM in data set [1] (setting [4]), 0.014 µM in data set [2] (setting [5]) and 0.014 µM in data set [2] (setting [6]).
Compound `Cc1ccc(S(=O)(=O)NCCCn2c(CCO)nc3c(N)nc4ccccc4c32)cc1` [Example 1, N-{3-[4-Amino-2-(2-hydroxyethyl)-1H-imidazo[4,5-c]quinolin-1-yl]propyl}-4-methylbenzenesulfonamide] had a melting point of 231 to 232 °C. The minimal effective concentration in data set [1] (setting [4]) is 10 µM. The minimal effective concentration in data set [2] (setting [6]) was determined as 0.37 µM.
The matching figures for `Nc1nc2ccccc2c2c1nc(CCO)n2CCCNC(=O)c1cc2ccccc2cn1` [Example 2, N-{3-[4-Amino-2-(2-hydroxyethyl)-1H-imidazo[4,5-c]quinolin-1-yl]propyl}isoquinoline-3-carboxamide]: 245 to 246 °C, 3.33 µM and 3.33 µM.
The compound `CS(=O)(=O)NCCCCn1c(CCO)nc2c(N)nc3ccccc3c21` [Example 3, N-{4-[4-Amino-2-(2-hydroxyethyl)-1H-imidazo[4,5-c]quinolin-1-yl]butyl}methanesulfonamide] yielded a melting point of 206 to 208 °C. Further, in data set [1] (setting [4]), the minimal effective concentration is greater than 30 µM. The “Maximal Response (pg/mL) TNF” value in data set [1] (maximal response in dose response curve, background-subtracted, reference-adjusted, median where more than one experiment, * = below background of 40 pg/mL) was “* (TNF below experimental background of 40 pg/mL.)”. Further, in data set [2] (setting [6]), the minimal effective concentration turned out to be 0.37 µM.
`CC(C)(N)Cn1c(CO)nc2c(N)nc3ccccc3c21` [Example 4, 1-(2-Amino-2-methylpropyl)-2-hydroxymethyl-1H-imidazo[4,5-c]quinolin-4-amine]: the melting point is 248 to 250 °C. Besides, the minimal effective concentration in data set [1] (setting [4]) was 3.33 µM. In addition, the minimal effective concentration in data set [2] (setting [6]) is 0.37 µM.
In turn, `CC(C)(Cn1c(CO)nc2c(N)nc3ccccc3c21)NC(=O)C1CCCCC1` [Example 5, N-[2-(4-Amino-2-hydroxymethyl-1H-imidazo[4,5-c]quinolin-1-yl)-1,1-dimethylethyl]cyclohexanecarboxamide] displayed a melting point of 248 to 250 °C. The minimal effective concentration in data set [1] (setting [4]) turned out to be 10 µM. Further, the minimal effective concentration in data set [2] (setting [6]) was found to be 0.37 µM.
In turn, `Nc1nc2ccccc2c2c1nc(CO)n2CCCCNC(=O)C1CCCC1` [Example 145, N-{4-[4-amino-2-(hydroxymethyl)-1H-imidazo[4,5-c]quinolin-1-yl]butyl}cyclopentanecarboxamide] returned a melting point of 183 to 186 °C.
Same read-out and setting: next, `CC(C)[C@H](NC(=O)OCc1ccccc1)C(=O)OCc1nc2c(N)nc3ccccc3c2n1CCCCNS(C)(=O)=O` [Example 148, (4-Amino-1-{4-[(methylsulfonyl)amino]butyl}-1H-imidazo[4,5-c]quinolin-2-yl)methyl N-[(benzyloxy)carbonyl]-L-valinate]: 99 to 100 °C; `CC(C)[C@H](N)C(=O)OCc1nc2c(N)nc3ccccc3c2n1CCCCNS(C)(=O)=O` [Example 149, (4-Amino-1-{4-[(methylsulfonyl)amino]butyl}-1H-imidazo[4,5-c]quinolin-2-yl)methyl L-valinate]: 161 to 163 °C; `Nc1nc2ccccc2c2c1nc(CO)n2CC1CCOCC1` [Example 150, [4-Amino-1-(tetrahydro-2H-pyran-4-ylmethyl)-1H-imidazo[4,5-c]quinolin-2-yl]methanol]: 239 to 241 °C.

In general, melting point refers to the temperature, or range, at which the solid turns liquid.
